Measured values taken from the SangsterLogP compilation.

Experiment: method code SF-AS, from PMID: 4480356

SMILES	logP
Cc1cnc(C(c2ccc(O)cc2)c2ccc(O)cc2)s1	3.34
Oc1ccc(C(c2ccc(O)cc2)c2cccnc2)cc1	3.13
Oc1ccc(C(c2ccc(O)cc2)c2nccs2)cc1	2.96
Cc1cnc(Cc2ccc(O)cc2)s1	2.62
O=C(O)c1ccccc1C(c1ccc(O)cc1)c1ccc(O)cc1	2.61
Oc1ccc(Cc2ccc(O)cc2)cc1	2.91
Oc1ccc(C(c2ccc(O)cc2)c2ccccn2)cc1	2.84
Oc1ccc(C(c2ccncc2)c2ccc(O)cc2)cc1	3.24
Nc1ccccc1C(c1ccc(O)cc1)c1ccc(O)cc1	3.16
OCc1ccccc1C(c1ccc(O)cc1)c1ccc(O)cc1	3.27
